{
  "source": "patent US20240172749A1",
  "about": "“USE OF NITRAPYRIN FOR IMPROVED PLANT GROWTH AND DEVELOPMENT” (Verdesian Life Sciences U.S., LLC, priority 2021, published 2024)",
  "key": {"[1]": {"settings": "compositions and/or formulations containing high amounts of water; cited from earlier work"}, "corn seedlings": {"system": "corn seedlings", "test": "Greenhouse study of nitrapyrin as a biostimulant, shoot dry weight (biomass) of corn seedlings", "format": "in vivo", "settings": "applied at lower concentrations/label rates than typically employed as nitrification inhibitor (equal to or lower than 45.4 grams of nitrapyrin per acre)", "experimental": "Com seeds were sown in 3-liter pots filled with a peat-vermiculite-perlite potting mix. Plants were grown for a period of 14 days in a greenhouse under standard conditions (28/32° C. night/day temperatures, 16-hour photoperiod, 55% relative humidity, 800 uMol/m2/s light intensity). Seven days after planting, treatments were applied using a 3×3 factorial treatment design (3 nitrapyrin rates×3 fertilizer treatments), with 4 biological replications per treatment combination. Plants were arranged in a completely randomized layout on the greenhouse bench. Nitrapyrin rates were: 0.0 g/plant (acetonitrile only), 0.0005 g/plant and 0.00073 g/plant, with each treatment unit dissolved in 5 mL of acetonitrile. Fertilizer treatments were: No fertilizer (water only), 15-5-15, and 6-24-6. Fertilizers were delivered at a rate of 100 ppm nitrogen, 3 times/week beginning on day 7 through day 14. Nitrapyrin treatments were given only once on day 7. Plants were monitored for signs of phytotoxicity during the experiment. On day 14, plants were harvested and dried in a forced-air oven. Dried plants were weighed individually for biomass. For results see FIG. 1.\nA second experiment was performed with the same execution as described above, but with additional treatment groups and additional growing time (21 days). […]"}},
  "data": [
    {"compound": "Clc1cccc(C(Cl)(Cl)Cl)n1", "note": "[nitrapyrin, Nitrapyrin]", "values": [
      {"measurement": "degradation of nitrapyrin", "setting": "[1]", "value": "rapid degradation"},
      {"measurement": "biostimulant properties (improvement in plant growth and/or vigor)", "setting": "corn seedlings", "value": "can exhibit biostimulant properties"}
    ]}
  ]
}
